In patent US20260209196A1, “AMIDINOUREA DERIVATIVES AND THEIR USE IN THE TREATMENT OF CANCER” (UNIVERSITE COTE D'AZUR, priority 2022, published 2026):
Where two headings read alike, the source gives them in different places.

Assays:
Format in all cases: cell-based
[1] = system: A375; assay: Cell viability of A375 melanoma cells by Trypan Blue exclusion; conditions: for viability at 5 µM: Homo sapiens, A-375, viable cells as mean percentage of control cells ± SEM, N=3
Experimental: The BRAFV600E mutant melanoma line A375 (CRL-1619) was purchased from ATCC (Manassas, VA, USA). The A375 were maintained in glutamine-containing DMEM supplemented with 10% heat-inactivated fetal bovine serum, penicillin (100 units/ml) and streptomycin ([…]).
(§1) Cell viability was measured by the Trypan Blue exclusion method. Briefly, cells washed with PBS were harvested by a 3-minute incubation in 0.05% trypsin before neutralization with serum containing medium. An aliquot of the cell suspension was then mixed 1:1 with a 0.4% Trypan blue solution and viable cells were counted within 5 minutes on Kova slides under an optical microscope. Results are expressed as the mean percentage of control cells±SEM. N=3

[2] = system: NCI 60 cell panel; assay: DTP-NCI assay (NCI 60 cell screen, single high dose); conditions: Homo sapiens, 48 h; single high dose 10^-5 M, full NCI 60 cell panel; growth relative to no-drug control and to time zero number of cells; read-out: DTP-NCI (mean of the percent growth of treated cells)
Experimental: The effect of 10 μM of MTF504 was monitored on a panel 60 cell lines representing nine distinct tumour types: leukemia, colon, lung, central nervous system, renal, melanoma, ovarian, breast and prostate. Briefly, the compound was sent to the US National Cancer Institute where its antineoplastic effects were monitored on the panel of cell lines after 48 hours of treatment following a standardized protocol.
All compounds submitted to the NCI 60 Cell screen are tested initially at a single high dose (10^-5 M) in the full NCI 60 cell panel. The results are reported as a mean of the percent growth of treated cells. The number reported is growth relative to the no-drug control, and relative to the time zero number of cells. This allows detection of […].

[3] = system: normal human melanocytes; assay: Toxicity on normal human melanocytes by Trypan blue counting; conditions: FIG. 3
Experimental: Normal human melanocytes were obtained from the foreskins of Caucasian children and grown in MCDB 153 medium supplemented with 2% fetal calf serum, 0.5 mg/ml hydrocortisone, 5 mg/ml insulin, 16 nM phorbol-12 myristate 13-acetate, 1 ng/ml basic fibroblast growth factor, 20 mg/ml bovine pituitary extract, […], and penicillin/streptomycin (100 U/ml/[…]). All cells were maintained in humidified incubators at 37° C. with 5% CO2.
as §1

[4] = 24 h, read-out: Viab A375 5 μM/24 h
[5] = 48 h, read-out: Viab A375 5 μM/48 h

Row | Compound | viability at 5 µM [1, 4] [%] | viability at 5 µM [1, 5] [%] | decrease of melanoma cell viability versus CRO15 and MTF319 ([1]; after 24 hours of treatment, FIG. 5) | activity at 10 µM [2] [%] | toxicity on normal human melanocytes [3]
1 | N=C(NC(=O)Nc1ccccc1Cl)Nc1nc2ccccc2s1 [MTF504, N-benzo[d]thiazol-2-yl-N″-(2-chloroaniline-carbonyl)-guanidine] | 26 | 7.1 | more efficient than previously reported compounds | 25.4 | absence of toxicity
2 | Cc1ccccc1NC(O)NC(=N)Nc1nc(-c2cccc([N+](=O)[O-])c2)cs1 (centres unmarked) [MTF515, N-4-(3-nitrophenyl) thiazol-2-yl-N″-(2-methylaniline-carbonyl)-guanidine] | 64.9 | 28.7 |  | 37.7 | 
